# Measured values as given in paper PMC9238401, “Peptide Conjugates Derived from flg15, Pep13, and PIP1 That Are Active against Plant-Pathogenic Bacteria and Trigger Plant Defense Responses” (Applied and Environmental Microbiology, 2022).
# Legend:
# [1] = test system: Pseudomonas syringae pv. actinidiae Psa3700.1.1; assay: In vitro growth inhibition (MIC); type: cell-based; conditions: TSB, 25°C, 48 h, OD 600 nm (Bioscreen C), three replicates, experiment repeated twice; MIC given as range
# Protocol: (§1) Peptide conjugates were tested for in vitro growth inhibition of the plant-pathogenic bacteria E. amylovora PMV6076, Xanthomonas arboricola pv. pruni CFBP5563, X. fragariae Xf349-9A, X. axonopodis pv. vesicatoria 2133-2, P. syringae pv. actinidiae Psa3700.1.1, and P. syringae pv. syringae EPS94 (Fig. 1, Table SA). The corresponding monomers (flg15, BP13, Pep13, PIP1, BP16, BP100, BP143, BP387, BP475, and KSL-W) were included for comparison.
# (§2) The following plant-pathogenic bacterial strains were used: Erwinia amylovora PMV6076 (Institut National de la Recherche Agronomique, Angers, France), Pseudomonas syringae pv. syringae EPS94 (Institut de Tecnologia Agroalimentària, University of Girona, Spain), Xanthomonas axonopodis pv. vesicatoria 2133-2, X. axonopodis pv. vesicatoria Xav206 (Xav) (D. F. Ritchie, Department of Plant Pathology, North Carolina State University), Pseudomonas syringae pv. actinidiae Psa3700.1.1, Xanthomonas fragariae Xf349-9A (Instituto Valenciano de Investigaciones Agrarias, Valencia, Spain), and Xanthomonas arboricola pv. pruni CFBP5563 (Collection Française de Bactéries Associées aux Plantes, Angers, France). All bacteria except for X. fragariae were stored in Luria Bertani (LB) broth supplemented with glycerol (20%) and maintained at −80°C. For X. fragariae, medium B ([80]) was used instead of LB. E. amylovora, X. arboricola pv. pruni, P. syringae pv. syringae, and P. syringae pv. actinidiae were scraped from the agar medium after growing for 24 h at 25°C, and X. axonopodis pv. vesicatoria and X. fragariae, after growing for 48 h at 25°C. The cell material was suspended in sterile water to obtain a suspension of 10^8 CFU mL^−1.
# (§3) Lyophilized peptides were solubilized in sterile Milli-Q water to a final concentration of 1 mM and filter-sterilized through a 0.22-μm pore filter. […] Then, 20 μL of each dilution were mixed in a microtiter plate well with 20 μL of the corresponding suspension of the bacterial indicator, 160 μL of Trypticase soy broth (TSB) (bioMérieux, France) to a total volume of 200 μL. Three replicates for each combination of strain, compound, and concentration were used. Microbial growth was determined by optical density measurement at 600 nm (Bioscreen C; Labsystem, Helsinki, Finland). Microplates were incubated at 25°C with 20 s of shaking before hourly absorbance measurement for 48 h. The experiment was repeated twice. The MIC was taken as the lowest compound concentration with no growth at the end of the experiment.
# [2] = test system: Pseudomonas syringae pv. syringae EPS94; assay: In vitro growth inhibition (MIC); type: cell-based; conditions: TSB, 25°C, 48 h, OD 600 nm (Bioscreen C), three replicates, experiment repeated twice; MIC given as range
# Protocol: as §1, §2, §3
# [3] = test system: Xanthomonas fragariae Xf349-9A; assay: In vitro growth inhibition (MIC); type: cell-based; conditions: TSB, 25°C, 48 h, OD 600 nm (Bioscreen C), three replicates, experiment repeated twice; MIC given as range
# Protocol: as §1, §2, §3
# [4] = test system: Erwinia amylovora PMV6076; assay: In vitro growth inhibition (MIC); type: cell-based; conditions: TSB, 25°C, 48 h, OD 600 nm (Bioscreen C), three replicates, experiment repeated twice; MIC = lowest concentration with no growth, given as range
# Protocol: as §1, §2, §3
# [5] = test system: Xanthomonas arboricola pv. pruni CFBP5563; assay: In vitro growth inhibition (MIC); type: cell-based; conditions: TSB, 25°C, 48 h, OD 600 nm (Bioscreen C), three replicates, experiment repeated twice; MIC given as range
# Protocol: as §1, §2, §3
# [6] = test system: Xanthomonas axonopodis pv. vesicatoria 2133-2; conditions: TSB, 25°C, 48 h, OD 600 nm (Bioscreen C), three replicates, experiment repeated twice; MIC given as range
# Text: The corresponding monomers (flg15, BP13, Pep13, PIP1, BP16, BP100, BP143, BP387, BP475, and KSL-W) were included for comparison.
# as §2, §3
# tobacco leaves = assay: Effect of peptide infiltration on tobacco leaves (phytotoxicity); type: in vivo
# Protocol: Peptide conjugates were also assayed for their toxicity in tobacco leaves (Fig. 3, Table SC). After 48 h of infiltration, melittin caused a necrotic area of 0.70 and 2.17 cm in diameter at 50 and 250 μM, respectively. The monomers were not phytotoxic at those concentrations; all of them led to lesions of ≤1.2 cm at 250 μM. All peptide conjugates were also less phytotoxic than melittin, causing necrotic lesions between 0.26 and 1.67 cm in diameter at 250 μM. In particular, 15 of the 30 conjugates led to a necrotic area of <1 cm at this concentration. In general, sequences incorporating BP13 were among the most phytotoxic.
# Peptide conjugates were evaluated for their effect on infiltration on tobacco leaves as described previously ([41]). Peptide solutions of 50, 150, and 250 μM were infiltrated (100 μL) into the mesophylls of fully expanded tobacco leaves. Infiltrations were carried out in a single leaf, and for each peptide and dose, at least three leaves randomly distributed in different plants were inoculated. Control infiltrations with water (negative control) or melittin (positive control) at the same molar concentration were performed. The appearance of symptoms on the leaves was followed for 48 h after infiltration and measured as lesion diameter.
# horse erythrocytes = conditions: TRIS buffer pH 7.2, 1 h, 37°C, absorbance 540 nm, relative to melittin 100 μM, ± confidence interval (α = 0.05)
# Protocol: The toxicity of peptide conjugates to eukaryotic cells was determined as the ability to lyse erythrocytes (Table SB).
# The hemolytic activity of the compounds was evaluated by determining hemoglobin release from erythrocyte suspensions of horse blood (5% vol/vol) (Oxoid) as previously described ([45]). Blood was centrifuged at 6000g for 5 min, washed three times with TRIS buffer (10 mM TRIS, 150 mM NaCl, pH 7.2) and diluted 10 times. Compounds were solubilized in TRIS buffer at 750, 500, 300, and 100 μM and mixed with horse erythrocytes (1:1 vol/vol). The mixture was incubated with continuous shaking for 1 h at 37°C. Then, the tubes were centrifuged at 3500g for 10 min, 80-μL aliquots of the supernatant were transferred to 100-well microplates (Bioscreen) and diluted with 80 μL water, and the absorbance measured at 540 nm (Bioscreen). […] The percentage of hemolysis (H) was calculated using the equation H = 100 × ([Op − Ob]/[Om − Ob]), where Op is the density for a given compound concentration, Ob is that for the buffer, and Om is that for the melittin positive control.
# [7] = HPLC retention time as indicator of relative hydrophobicity; type: physicochemical; conditions: chromatographic, Kromasil 100 C18 (4.6 mm × 40 mm, 3 μm), linear gradient 2 to 100% B over 12 min, 1 mL/min; A 0.1% aqueous TFA, B 0.1% TFA in CH3CN; used as indicator of relative hydrophobicity
# Protocol: The parameters related to the structure of the peptide conjugates (sequence, charge, hydrophobic ratio [HR], and HPLC retention time), as well as their physicochemical properties (grand average hydropathicity [GRAVY] and hydrophobic moment [<μH>]) obtained from the online programs ProtParam (Expasy server) and HeliQuest are included in Table 1.
# Peptides were analyzed under standard analytical HPLC conditions. Method A: peptides were analyzed with a Dionex liquid chromatography instrument composed of a UV/Vis Dionex UVD170U detector, a P680 Dionex pump, an ASI-100 Dionex automatic injector, and Chromeleon 6.60 software. Detection was performed at a wavelength of 220 nm. Solvent A was 0.1% aqueous trifluoroacetic acid (TFA), and solvent B was 0.1% TFA in CH3CN. Analyses were carried out with a Kromasil 100 C18 (4.6 mm × 40 mm, 3 μm) column with a linear gradient of 2 to 100% B over 7 min at a flow rate of 1 mL/min. Method B: peptides were analyzed with a 1260 Infinity II liquid chromatography instrument (Agilent Technologies) composed of a diode array detector HS, a quaternary pump VL, a 1260 vial sampler, and OpenLab CDS ChemStation software. Analyses were carried out with a Kromasil 100 C18 (4.6 mm × 40 mm, 3 μm) column with a linear gradient of 2 to 100% B over 12 min at a flow rate of 1 mL/min.
# [8] = 100 μL infiltrated into mesophyll, lesion diameter 48 h after infiltration, at least three leaves, ± confidence interval (α = 0.05)
Substance,"MIC, Psa [1]","MIC, Pss [2]","MIC, Xf [3]","MIC, Ea [4]","MIC, Xap [5]","MIC, Xav [6]",Size of the lesions in infiltrated tobacco leaves at 50 μM (tobacco leaves; in vivo),Size of the lesions in infiltrated tobacco leaves at 150 μM (tobacco leaves; in vivo),Size of the lesions in infiltrated tobacco leaves at 250 μM (tobacco leaves; in vivo),Percent hemolysis at 50 μM (horse erythrocytes),Percent hemolysis at 150 μM (horse erythrocytes),Percent hemolysis at 250 μM (horse erythrocytes),Percent hemolysis at 375 μM (horse erythrocytes),"tR (min), HPLC retention time (method B) [7]",Size of the lesions in infiltrated tobacco leaves at 50 μM (tobacco leaves; [8]),Size of the lesions in infiltrated tobacco leaves at 150 μM (tobacco leaves; [8]),Size of the lesions in infiltrated tobacco leaves at 250 μM (tobacco leaves; [8])
H-YGIHTHKKVVFWVKFK-NH2 [PIP1-KSLW],6.2 to 12.5 µM,6.2 to 12.5 µM,6.2 to 12.5 µM,12.5 to 25 µM,3.1 to 6.2 µM,3.1 to 6.2 µM,0 ± 0 cm,0.47 ± 0.24 cm,0.70 ± 0.11 cm,7 ± 0.8%,7 ± 1.1%,6 ± 0.4%,6 ± 0.4%,4.81 min,,,
H-RINSAKDDAAGLQIAKKLFKKILKKL-NH2 [flg15-BP16],3.1 to 6.2 µM,6.2 to 12.5 µM,1.6 to 3.1 µM,3.1 to 6.2 µM,3.1 to 6.2 µM,1.6 to 3.1 µM,,,,2 ± 0.1%,3 ± 0.2%,4 ± 0.9%,5 ± 0.3%,5.89 min,0.20 ± 0.12 cm,0.49 ± 0.13 cm,0.42 ± 0.11 cm
H-FKLFKKILKVLKKVVFWVKFK-NH2 [BP13-KSLW],6.2 to 12.5 µM,12.5 to 25 µM,1.6 to 3.1 µM,> 50 µM,1.6 to 3.1 µM,1.6 to 3.1 µM,,,,80 ± 11.2%,90 ± 7.3%,100 ± 8.4%,99 ± 8.4%,7.02 min,0.56 ± 0.23 cm,1.00 ± 0.25 cm,0.92 ± 0.36 cm
"KKLFKKILKYL-RINSAKDDAAGLQIA-OH [BP100-flg15, peptide conjugate, BP100 at N-terminus, flg15 at C-terminus]",1.6 to 3.1 µM,3.1 to 6.2 µM,6.2 to 12.5 µM,6.2 to 12.5 µM,1.6 to 3.1 µM,3.1 to 6.2 µM,,,,1 ± 0.9%,1 ± 0.8%,3 ± 0.0%,6 ± 1.6%,4.96 min,0.10 ± 0.12 cm,0.28 ± 0.14 cm,0.36 ± 0.13 cm
"KKVVFWVKFK-RINSAKDDAAGLQIA-OH [KSLW-flg15, peptide conjugate, KSL-W at N-terminus, flg15 at C-terminus]",> 50 µM,> 50 µM,12.5 to 25 µM,> 50 µM,> 50 µM,6.2 to 12.5 µM,,,,4 ± 1.9%,7 ± 3.4%,8 ± 0.9%,8 ± 2.7%,4.75 min,0 ± 0 cm,0.13 ± 0.09 cm,0.26 ± 0.05 cm
"RINSAKDDAAGLQIA-KKLFKKILKYL-NH2 [flg15-BP100, peptide conjugate, flg15 at N-terminus, BP100 at C-terminus]",,12.5 to 25 µM,6.2 to 12.5 µM,6.2 to 12.5 µM,0.8 to 1.6 µM,0.8 to 1.6 µM,,,,48 ± 4.1%,52 ± 4.3%,63 ± 2.4%,66 ± 9.2%,6.29 min,0.46 ± 0.10 cm,0.80 ± 0.22 cm,1.02 ± 0.24 cm
